In the experiment the test system is HIV-1 strain 92HT599. Nature of the experiment: Antiviral activity against HIV-1 strain 92HT599 in MT2 cells (p24 estimation). The class given is cell-based. The note with it: HIV-1 92HT599, ~96 hours. As to the method: Example 77: Evaluation of Compounds Antiviral Activity Against HIV-1 Strain 92HT599 in MT2 Cells
MT2 cells were infected with HIV-1 strain 92HT599 (10 TCID 50/30000 cells). The infected cells were plated at the concentration of 30,000 cells per well in 96 well plate. Test compound was added to the micro plate in defined format with the final concentration of DMSO (vehicle) is not more than 1%. Incubation was carried out in CO2 incubator for ˜96 hours for viral infection. At the end of incubation period an aliquot from each well was taken for p24 estimation. The quantitation of p24 is an index for antiviral activity of the compound. Percent inhibition was calculated with reference to control values (vehicle controls). p24 estimation was carried out using Advance biosciences kit as per the procedure detailed by supplier.

Setting [1] is: Human immunodeficiency virus 1, 0% serum binding assay, read-out: IC50 0% serum.
Setting [2] is: Human immunodeficiency virus 1, 40% serum binding assay, read-out: IC50 40% serum.

pIC50: −log10 of the molar value. Where a name gives a salt, the structure may show the parent alone. Read-outs that look alike come from different tables or passages of the source. Where only a bound is given, the exact number is not on record here.

Take `Cc1ccc(C(=O)NC2(C(=O)N[C@@]34CC[C@]5(C)[C@H](CC[C@@H]6[C@@]7(C)CC[C@H](OC(=O)[C@H]8C[C@@H](C(=O)O)C8(C)C)C(C)(C)[C@@H]7CC[C@]65C)C3=C(C(C)C)C(=O)C4)CCCCC2)cn1` [Example 49, (1R,3S)-3-((((3aR,5aR,5bR,7aR,9S,11aR,11bR,13aS)-1-isopropyl-5a,5b,8,8,11a-pentamethyl-3a-(1-(6-methylnicotinamido)cyclohexane-1-carboxamido)-2-oxo-3,3a,4,5,5a,5b,6,7,7a,8,9,10,11,11a,11b,12,13,13a-octadecahydro-2H-cyclopenta[a]chrysen-9-yl)oxy)carbonyl)-2,2-dimethylcyclobutane-1-carboxylic acid]: the pIC50 (as a rule, the IC50 on a negative log10 scale, so that one unit is a factor of ten) under setting [1] was > 8.52 and the pIC50 under setting [2] is > 7.30.

Take `Cc1ccc(C(=O)NC2(C(=O)N[C@@]34CC[C@]5(C)[C@H](CC[C@@H]6[C@@]7(C)CC[C@H](OC(=O)[C@H]8C[C@@H](C(=O)O)C8(C)C)C(C)(C)[C@@H]7CC[C@]65C)C3=C(C(C)C)C(=O)C4)CCCCC2)cc1` [Example 50, (1R,3S)-3-((((3aR,5aR,5bR,7aR,9S,11aR,11bR,13aS)-1-isopropyl-5a,5b,8,8,11a-pentamethyl-3a-(1-(4-methylbenzamido)cyclohexane-1-carboxamido)-2-oxo-3,3a,4,5,5a,5b,6,7,7a,8,9,10,11,11a,11b,12,13,13a-octadecahydro-2H-cyclopenta[a]chrysen 9-yl)oxy)carbonyl)-2,2-dimethylcyclobutane-1-carboxylic acid]: the pIC50 by setting is: under setting [1], > 8.52; under setting [2], > 7.30.

With `CC(C)C1=C2[C@H]3CC[C@@H]4[C@@]5(C)CC[C@H](OC(=O)[C@H]6C[C@@H](C(=O)O)C6(C)C)C(C)(C)[C@@H]5CC[C@@]4(C)[C@]3(C)CC[C@@]2(NC(=O)C(C)(C)NC(=O)CN(C)C)CC1=O` [Example 59, (1R,3S)-3-((((3aR,5aR,5bR,7aR,9S,11aR,11bR,13aS)-3a-(2-(2-(dimethylamino)acetamido)-2-methylpropanamido)-1-isopropyl-5a,5b,8,8,11a-pentamethyl-2-oxo-3,3a,4,5,5a,5b,6,7,7a,8,9,10,11,11a,11b,12,13,13a-octadecahydro-2H-cyclopenta[a]chrysen-9-yl)oxy)carbonyl)-2,2-dimethylcyclobutane-1-carboxylic acid], the pIC50 runs as follows: under setting [1], > 8.52; under setting [2], 6.70 to 7.30.

Regarding `Cc1cccc(C(=O)NC(C)(C)C(=O)N[C@@]23CC[C@]4(C)[C@H](CC[C@@H]5[C@@]6(C)CC[C@H](OC(=O)[C@H]7C[C@@H](C(=O)O)C7(C)C)C(C)(C)[C@@H]6CC[C@]54C)C2=C(C(C)C)C(=O)C3)n1` [Example 60, (1R,3S)-3-((((3aR,5aR,5bR,7aR,9S,11aR,11bR,13aS)-1-isopropyl-5a,5b,8,8,11a-pentamethyl-3a-(2-methyl-2-(6-methylpicolinamido)propanamido)-2-oxo-3,3a,4,5,5a,5b,6,7,7a,8,9,10,11,11a,11b,12,13,13a-octadecahydro-2H-cyclopenta[a]chrysen-9-yl)oxy)carbonyl)-2,2-dimethylcyclobutane-1-carboxylic acid], the pIC50 is > 8.52 under setting [1] and > 7.30 under setting [2].

For the compound `CC(C)C1=C2[C@H]3CC[C@@H]4[C@@]5(C)CC[C@H](OC(=O)[C@H]6C[C@@H](C(=O)O)C6(C)C)C(C)(C)[C@@H]5CC[C@@]4(C)[C@]3(C)CC[C@@]2(NC(=O)C(C)(C)NCc2ccccn2)CC1=O` [Example 67, (1R,3S)-3-((((3aR,5aR,5bR,7aR,9S,11aR,11bR,13aS)-1-isopropyl-5a,5b,8,8,11a-pentamethyl-3a-(2-methyl-2-((pyridin-2-ylmethyl)amino)propan amido)-2-oxo-3,3a,4,5,5a,5b,6,7,7a,8,9,10,11,11a,11b,12,13,13a-octadecahydro-2H-cyclopenta[a]chrysen-9-yl)oxy)carbonyl)-2,2-dimethylcyclobutane-1-carboxylic acid], the pIC50 by setting is: under setting [1], > 8.52; under setting [2], > 7.30.

Turning to `CC(C)C1=C2[C@H]3CC[C@@H]4[C@@]5(C)CC[C@H](OC(=O)[C@H]6C[C@@H](C(=O)O)C6(C)C)C(C)(C)[C@@H]5CC[C@@]4(C)[C@]3(C)CC[C@@]2(NC(=O)C(C)(C)NCc2ccc(Cl)cc2)CC1=O` [Example 68], the pIC50 runs as follows: under setting [1], 8.00 to 8.52; under setting [2], > 7.30.

`CC(C)C1=C2[C@H]3CC[C@@H]4[C@@]5(C)CC[C@H](OC(=O)[C@H]6C[C@@H](C(=O)O)C6(C)C)C(C)(C)[C@@H]5CC[C@@]4(C)[C@]3(C)CC[C@@]2(NC(=O)C(C)(C)NCC2(c3ccc(Cl)cc3)CC2)CC1=O` [Example 69, (1R,3S)-3-((((3aR,5aR,5bR,7aR,9S,11aR,11bR,13aS)-3a-(2-(((1-(4-chlorophenyl)cyclopropyl)methyl)amino)-2-methylpropanamido)-1-isopropyl-5a,5b,8,8,11a-pentamethyl-2-oxo-3,3a,4,5,5a,5b,6,7,7a,8,9,10,11,11a,11b,12,13,13a-octadecahydro-2H-cyclopenta[a]chrysen-9-yl)oxy)carbonyl)-2,2-dimethylcyclobutane-1-carboxylic acid]: the pIC50 runs as follows: under setting [1], < 8.00; under setting [2], 6.70 to 7.30.

Consider `Cc1ccc(NC(=O)NC(C)(C)C(=O)N[C@@]23CC[C@]4(C)[C@H](CC[C@@H]5[C@@]6(C)CC[C@H](OC(=O)[C@H]7C[C@@H](C(=O)O)C7(C)C)C(C)(C)[C@@H]6CC[C@]54C)C2=C(C(C)C)C(=O)C3)cn1` [Example 71, (1R,3S)-3-((((3aR,5aR,5bR,7aR,9S,11aR,11bR,13aS)-1-isopropyl-5a,5b,8,8,11a-pentamethyl-3a-(2-methyl-2-(3-(6-methylpyridin-3-yl)ureido)propanamido)-2-oxo-3,3a,4,5,5a,5b,6,7,7a,8,9,10,11,11a,11b,12,13,13a-octadecahydro-2H-cyclopenta[a]chrysen-9-yl)oxy)carbonyl)-2,2-dimethylcyclobutane-1-carboxylic acid], for which the pIC50 was > 8.52 under setting [1] and 6.70 to 7.30 under setting [2].

For `CC(C)C1=C2[C@H]3CC[C@@H]4[C@@]5(C)CC[C@H](OC(=O)[C@H]6C[C@@H](C(=O)O)C6(C)C)C(C)(C)[C@@H]5CC[C@@]4(C)[C@]3(C)CC[C@@]2(NC(=O)C(C)(C)NCCN(C)C)CC1=O` [Example 73, (1R,3S)-3-((((3aR,5aR,5bR,7aR,9S,11aR,11bR,13aS)-3a-(2-((2-(dimethylamino)ethyl)amino)-2-methylpropanamido)-1-isopropyl-5a,5b,8,8,11a-pentamethyl-2-oxo-3,3a,4,5,5a,5b,6,7,7a,8,9,10,11,11a,11b,12,13,13a-octadecahydro-2H-cyclopenta[a]chrysen-9-yl)oxy)carbonyl)-2,2-dimethylcyclobutane-1-carboxylic acid], the pIC50 reads like this: under setting [1], > 8.52; under setting [2], > 7.30.

Consider `CC(C)C1=C2[C@H]3CC[C@@H]4[C@@]5(C)CC[C@H](OC(=O)[C@H]6C[C@@H](C(=O)O)C6(C)C)C(C)(C)[C@@H]5CC[C@@]4(C)[C@]3(C)CC[C@@]2(NC(=O)C(C)(C)N)CC1=O` [Example 74, (1R,3S)-3-((((3aR,5aR,5bR,7aR,9S,11aR,11bR,13aS)-3a-(2-amino-2-methylpropanamido)-1-isopropyl-5a,5b,8,8,11a-pentamethyl-2-oxo-3,3a,4,5,5a,5b, 6,7,7a,8,9,10,11,11a,11b,12,13,13a-octadecahydro-2H-cyclopenta[a]chrysen-9-yl)oxy)carbonyl)-2,2-dimethylcyclobutane-1-carboxylic acid hydrochloride], for which the pIC50 is > 8.52 under setting [1] and > 7.30 under setting [2].

Take `CC(C)C1=C2[C@H]3CC[C@@H]4[C@@]5(C)CC[C@H](OC(=O)[C@H]6C[C@@H](C(=O)O)C6(C)C)C(C)(C)[C@@H]5CC[C@@]4(C)[C@]3(C)CC[C@@]2(NC(=O)C(C)(C)NC(=O)OC(C)(C)C)CC1=O` [Example 75]: the pIC50 runs as follows: under setting [1], > 8.52; under setting [2], > 7.30.

As to `CC(C)C1=C2[C@H]3CC[C@@H]4[C@@]5(C)CC[C@H](OC(=O)[C@H]6C[C@@H](C(=O)O)C6(C)C)C(C)(C)[C@@H]5CC[C@@]4(C)[C@]3(C)CC[C@@]2(NC(=O)C(C)(C)NC(=O)[C@@H]2CCCN2)CC1=O` [Example 76, (1R,3S)-3-((((3aR,5aR,5bR,7aR,9S,11aR,11bR,13aS)-1-isopropyl-5a,5b,8,8,11a-pentamethyl-3a-(2-methyl-2-((S)-pyrrolidine-2-carboxamido)propanamido)-2-oxo-3,3a,4,5,5a,5b,6,7,7a,8,9,10,11,11a,11b,12,13,13a-octadecahydro-2H-cyclopenta[a]chrysen-9-yl)oxy)carbonyl)-2,2-dimethylcyclobutane-1-carboxylic acid hydrochloride], the pIC50 under setting [1] is > 8.52 and the pIC50 under setting [2] was 6.70 to 7.30.
